PubChem BioAssay AID1259407 (Chemical Carcinogenesis Research Information System (CCRIS), 2018)
Active and inactive are the calls of the source. The rule behind the calls is not given here.

System: CCRIS mutagenicity, Ames/micronucleus/aberration tests
Test: CCRIS mutagenicity studies
[1] = Test System: AMES SALMONELLA TYPHIMURIUM, Strain/Indicator: TA97, Metabolic Activation: NONE, Method: PREINCUBATION
[2] = Test System: AMES SALMONELLA TYPHIMURIUM, Strain/Indicator: TA98, Metabolic Activation: HAMSTER, LIVER, S-9, AROCLOR 1254 (10%), Method: PREINCUBATION
[3] = Test System: AMES SALMONELLA TYPHIMURIUM, Strain/Indicator: TA98, Metabolic Activation: RAT, LIVER, S-9, AROCLOR 1254 (10%), Method: PREINCUBATION
[4] = Test System: AMES SALMONELLA TYPHIMURIUM, Strain/Indicator: TA100, Metabolic Activation: HAMSTER, LIVER, S-9, AROCLOR 1254 (10%), Method: PREINCUBATION
[5] = Test System: AMES SALMONELLA TYPHIMURIUM, Strain/Indicator: TA100, Metabolic Activation: NONE, Method: PREINCUBATION
[6] = Test System: AMES SALMONELLA TYPHIMURIUM, Strain/Indicator: TA100, Metabolic Activation: RAT, LIVER, S-9, AROCLOR 1254 (10%), Method: PREINCUBATION
[7] = Test System: AMES SALMONELLA TYPHIMURIUM, Strain/Indicator: TA1535, Metabolic Activation: HAMSTER, LIVER, S-9, AROCLOR 1254 (10%), Method: PREINCUBATION
[8] = Test System: AMES SALMONELLA TYPHIMURIUM, Strain/Indicator: TA1535, Metabolic Activation: NONE, Method: PREINCUBATION
[9] = Test System: AMES SALMONELLA TYPHIMURIUM, Strain/Indicator: TA1535, Metabolic Activation: RAT, LIVER, S-9, AROCLOR 1254 (10%), Method: PREINCUBATION
[10] = Test System: AMES SALMONELLA TYPHIMURIUM, Strain/Indicator: TA1537, Metabolic Activation: HAMSTER, LIVER, S-9, AROCLOR 1254 (10%), Method: PREINCUBATION
[11] = Test System: AMES SALMONELLA TYPHIMURIUM, Strain/Indicator: TA1537, Metabolic Activation: NONE, Method: PREINCUBATION
[12] = Test System: AMES SALMONELLA TYPHIMURIUM, Strain/Indicator: TA1537, Metabolic Activation: RAT, LIVER, S-9, AROCLOR 1254 (10%), Method: PREINCUBATION

For O=[N+]([O-])CCO, the mutagenic call (Test System: AMES SALMONELLA TYPHIMURIUM, Strain/Indicator: TA97, Metabolic Activation: HAMSTER, LIVER, S-9, AROCLOR 1254 (5 OR 30%), Method: PREINCUBATION) was “inactive; negative”, the mutagenic call (Test System: AMES SALMONELLA TYPHIMURIUM, Strain/Indicator: TA97, Metabolic Activation: HAMSTER, LIVER, S-9, AROCLOR 1254 (10%), Method: PREINCUBATION) was “inactive; negative” and the mutagenic call [1] was “inactive; negative”. The mutagenic call (Test System: AMES SALMONELLA TYPHIMURIUM, Strain/Indicator: TA97, Metabolic Activation: RAT, LIVER, S-9, AROCLOR 1254 (5 OR 30%), Method: PREINCUBATION) was “inactive; negative”, the mutagenic call (Test System: AMES SALMONELLA TYPHIMURIUM, Strain/Indicator: TA97, Metabolic Activation: RAT, LIVER, S-9, AROCLOR 1254 (10%), Method: PREINCUBATION) was “inactive; negative” and the mutagenic call [2] was “inactive; negative”. For the same compound, the mutagenic call [3] was “inactive; negative”, the mutagenic call [4] was “inactive; negative” and the mutagenic call (Test System: AMES SALMONELLA TYPHIMURIUM, Strain/Indicator: TA100, Metabolic Activation: HAMSTER, LIVER, S-9, AROCLOR 1254 (30%), Method: PREINCUBATION) was “inactive; negative”. For the same compound, the mutagenic call [5] was “inactive; negative”, the mutagenic call [6] was “inactive; negative” and the mutagenic call (Test System: AMES SALMONELLA TYPHIMURIUM, Strain/Indicator: TA100, Metabolic Activation: RAT, LIVER, S-9, AROCLOR 1254 (30%), Method: PREINCUBATION) was “inactive; negative”. For the same compound, the mutagenic call [7] was “inactive; negative”, the mutagenic call (Test System: AMES SALMONELLA TYPHIMURIUM, Strain/Indicator: TA1535, Metabolic Activation: HAMSTER, LIVER, S-9, AROCLOR 1254 (30%), Method: PREINCUBATION) was “inactive; negative” and the mutagenic call [8] was “inactive; negative”. The mutagenic call [9] was “inactive; negative”, the mutagenic call (Test System: AMES SALMONELLA TYPHIMURIUM, Strain/Indicator: TA1535, Metabolic Activation: RAT, LIVER, S-9, AROCLOR 1254 (30%), Method: PREINCUBATION) was “inactive; negative” and the mutagenic call [10] was “inactive; negative”. For the same compound, the mutagenic call [11] was “inactive; negative”, the mutagenic call [12] was “inactive; negative” and the mutagenic call (Test System: AMES SALMONELLA TYPHIMURIUM, Strain/Indicator: TA1538, Metabolic Activation: HAMSTER, LIVER, S-9, AROCLOR 1254 (30%), Method: PREINCUBATION) was “active; positive”. The mutagenic call (Test System: AMES SALMONELLA TYPHIMURIUM, Strain/Indicator: TA1538, Metabolic Activation: NONE, Method: PREINCUBATION) was “active; positive” and the mutagenic call (Test System: AMES SALMONELLA TYPHIMURIUM, Strain/Indicator: TA1538, Metabolic Activation: RAT, LIVER, S-9, AROCLOR 1254 (30%), Method: PREINCUBATION) was “active; positive”.
For CC(=O)N(CC(O)CN(C(C)=O)c1c(I)c(C(=O)NCC(O)CO)c(I)c(C(=O)NCC(O)CO)c1I)c1c(I)c(C(=O)NCC(O)CO)c(I)c(C(=O)NCC(O)CO)c1I (configuration not stated), the mutagenic call (Test System: AMES SALMONELLA TYPHIMURIUM, Strain/Indicator: TA98, Metabolic Activation: NONE, Method: STANDARD PLATE) was “inactive; negative”, the mutagenic call (Test System: AMES SALMONELLA TYPHIMURIUM, Strain/Indicator: TA98, Metabolic Activation: RAT, LIVER, S-9, AROCLOR 1254, Method: STANDARD PLATE) was “inactive; negative” and the mutagenic call (Test System: AMES SALMONELLA TYPHIMURIUM, Strain/Indicator: TA100, Metabolic Activation: NONE, Method: STANDARD PLATE) was “inactive; negative”. The mutagenic call (Test System: AMES SALMONELLA TYPHIMURIUM, Strain/Indicator: TA100, Metabolic Activation: RAT, LIVER, S-9, AROCLOR 1254, Method: STANDARD PLATE) was “inactive; negative”, the mutagenic call (Test System: AMES SALMONELLA TYPHIMURIUM, Strain/Indicator: TA1535, Metabolic Activation: NONE, Method: STANDARD PLATE) was “inactive; negative” and the mutagenic call (Test System: AMES SALMONELLA TYPHIMURIUM, Strain/Indicator: TA1535, Metabolic Activation: RAT, LIVER, S-9, AROCLOR 1254, Method: STANDARD PLATE) was “inactive; negative”. For the same compound, the mutagenic call (Test System: AMES SALMONELLA TYPHIMURIUM, Strain/Indicator: TA1537, Metabolic Activation: NONE, Method: STANDARD PLATE) was “inactive; negative”, the mutagenic call (Test System: AMES SALMONELLA TYPHIMURIUM, Strain/Indicator: TA1537, Metabolic Activation: RAT, LIVER, S-9, AROCLOR 1254, Method: STANDARD PLATE) was “inactive; negative” and the mutagenic call (Test System: AMES SALMONELLA TYPHIMURIUM, Strain/Indicator: TA1538, Metabolic Activation: NONE, Method: STANDARD PLATE) was “inactive; negative”. The mutagenic call (Test System: AMES SALMONELLA TYPHIMURIUM, Strain/Indicator: TA1538, Metabolic Activation: RAT, LIVER, S-9, AROCLOR 1254, Method: STANDARD PLATE) was “inactive; negative”, the mutagenic call (Test System: E. COLI, Strain/Indicator: WP2 UVRA, Metabolic Activation: NONE, Method: STANDARD PLATE) was “inactive; negative” and the mutagenic call (Test System: E. COLI, Strain/Indicator: WP2 UVRA, Metabolic Activation: RAT, LIVER, S-9, AROCLOR 1254, Method: STANDARD PLATE) was “inactive; negative”.
O=P(OCCCl)(OCCCl)OCCCl was tested, and the mutagenic call (End Point: IN VITRO CHROMOSOMAL ABERRATIONS, Test System: CHINESE HAMSTER OVARY CELLS, Metabolic Activation: NONE) was “inactive; negative”, the mutagenic call (End Point: IN VITRO CHROMOSOMAL ABERRATIONS, Test System: CHINESE HAMSTER OVARY CELLS, Metabolic Activation: RAT, LIVER, S-9, AROCLOR 1254) was “inactive; negative” and the mutagenic call [2] was “inactive; negative”. For the same compound, the mutagenic call (Test System: AMES SALMONELLA TYPHIMURIUM, Strain/Indicator: TA98, Metabolic Activation: NONE, Method: PREINCUBATION) was “inactive; negative”, the mutagenic call [3] was “inactive; negative” and the mutagenic call [4] was “inactive; negative”. For the same compound, the mutagenic call [5] was “inactive; negative”, the mutagenic call [6] was “inactive; negative” and the mutagenic call (Test System: AMES SALMONELLA TYPHIMURIUM, Strain/Indicator: TA100, Metabolic Activation: RAT, LIVER, S-9, PCB, Method: STANDARD PLATE) was “active; positive”. The mutagenic call [7] was “inactive; negative”, the mutagenic call [8] was “inactive; negative” and the mutagenic call [9] was “inactive; negative”. The mutagenic call (Test System: AMES SALMONELLA TYPHIMURIUM, Strain/Indicator: TA1535, Metabolic Activation: RAT, LIVER, S-9, PCB, Method: STANDARD PLATE) was “active; positive”, the mutagenic call [10] was “inactive; negative” and the mutagenic call [11] was “inactive; negative”. For the same compound, the mutagenic call [12] was “inactive; negative”.
For O=[N+]([O-])C1CCCCC1, the mutagenic call (Test System: UDS RAT HEPATOCYTES, Strain/Indicator: THY INCORP, Metabolic Activation: NONE) was “active; positive”.
With CCCC(=O)OC1CCCCC1 the mutagenic call [1] was “inactive; negative”, the mutagenic call (Test System: AMES SALMONELLA TYPHIMURIUM, Strain/Indicator: TA97, Metabolic Activation: RAT, LIVER, S-9, AROCLOR 1254, Method: PREINCUBATION) was “inactive; negative” and the mutagenic call (Test System: AMES SALMONELLA TYPHIMURIUM, Strain/Indicator: TA102, Metabolic Activation: NONE, Method: PREINCUBATION) was “inactive; negative”. For the same compound, the mutagenic call (Test System: AMES SALMONELLA TYPHIMURIUM, Strain/Indicator: TA102, Metabolic Activation: RAT, LIVER, S-9, AROCLOR 1254, Method: PREINCUBATION) was “inactive; negative”.
In the case of C/C=C1/C[C@@H](C)[C@](C)(OC(C)=O)C(=O)OC/C2=C/CN(C)CC[C@@H](OC1=O)C2=O, the mutagenic call (Test System: UDS RAT HEPATOCYTES, Strain/Indicator: THY INCORP, Metabolic Activation: NONE, Method: AUTORADIOGRAPHY) is reported as “active; positive”.
